Experimental data: ChEMBL document CHEMBL1201862, “PubChem BioAssay data set” (2004)
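Dose response: 5 concentrations. Exposure: 48 h. Format: 96-well plates. Endpoint: linear interpolation; highest concentration if not reached. At the GI50, growth is halved.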 Active and inactive are the calls of the source. No stated cut-off is given here; in the data, active = GI50 up to about 1.1 µM and inactive = higher.

Experiments:
Experiment in all cases: inhibition of tumour cell growth, NCI panel, 48 h
[1] = test system: SF-539
[2] = test system: TK-10
[3] = test system: HL-60
[4] = test system: HT-29
[5] = test system: U-251
[6] = test system: OVCAR-5
[7] = test system: A498
[8] = test system: SK-MEL-28
[9] = test system: Malme-3M
[10] = test system: OVCAR-4
[11] = test system: UACC-62
[12] = test system: KM12
[13] = test system: SNB-75
[14] = test system: IGROV-1
[15] = test system: RPMI-8226
[16] = test system: K562
[17] = test system: SK-MEL-5
[18] = test system: SNB-19

Measured: GI50

O=C1C=CC2(C=C1)CCNC1=C2C(=O)c2ccccc2C1=O
inactive: [1] > 100 µM | [2] > 100 µM | [3] > 100 µM | [4] > 100 µM | [5] > 100 µM | [6] > 100 µM | [7] > 100 µM | [8] > 100 µM | [9] > 100 µM | [10] > 100 µM | [11] > 100 µM | [12] > 100 µM | [13] 30.8 µM | [14] > 100 µM | [15] > 100 µM | [16] > 100 µM | [17] 56.9 µM

c1ccc2c3c([nH]c2c1)[C@H]1C2CCCCN2CN1CC3 (stereo partly drawn)
inactive: [1] > 100 µM | [2] > 100 µM | [3] 47.2 µM | [4] 81.7 µM | [5] > 100 µM | [6] > 100 µM | [7] > 100 µM | [8] > 100 µM | [9] 83.6 µM | [10] > 100 µM | [11] 51.8 µM | [13] 27.1 µM | [14] > 100 µM | [15] > 100 µM | [16] > 100 µM | [17] > 100 µM | [18] > 100 µM

N#CC(NNC(=O)c1ccccc1O)c1cccc(O)c1 (stereo not drawn)
inactive: [1] 2.93 µM | [2] > 100 µM | [3] 4.74 µM | [4] 37.6 µM | [5] 2.99 µM | [6] 54.7 µM | [8] > 100 µM | [9] 12.9 µM | [10] 3.36 µM | [11] 1.85 µM | [12] 4.52 µM | [13] 1.7 µM | [14] 3.4 µM | [15] > 100 µM | [16] 2.31 µM | [17] 18.2 µM

Cn1cc(NC(=O)c2cc(NC(=O)CCCCCCC(=O)Nc3cc(C(=O)Nc4cc(C(=O)NCCC(=N)N)n(C)c4)n(C)c3)cn2C)cc1C(=O)NCCC(=N)N
inactive: [1] 14.1 µM | [2] 11.6 µM | [3] 2.84 µM | [4] 73.6 µM | [5] 17.3 µM | [6] > 100 µM | [7] 1.93 µM | [8] 4.22 µM | [9] 2.67 µM | [10] 36.1 µM | [11] 7.6 µM | [12] 2.92 µM | [13] 10.1 µM | [14] 3.8 µM | [16] 5.35 µM | [17] 1.92 µM | [18] 29.2 µM

COc1ccc(-c2cc(C(=O)Nc3ccc(C)c(C)c3)nc(NC#N)n2)cc1
inactive: [1] > 100 µM | [2] > 100 µM | [4] > 100 µM | [5] > 100 µM | [6] > 100 µM | [7] > 100 µM | [8] > 100 µM | [9] > 100 µM | [10] > 100 µM | [11] > 100 µM | [12] > 100 µM | [13] > 100 µM | [14] > 100 µM | [15] > 100 µM | [16] > 100 µM | [17] > 100 µM | [18] > 100 µM

CN(CCO)c1nc(=O)c2c(n1C1OC(CO)C(O)C(O)C1O)CCCC2 (stereo not drawn)
inactive: [1] > 100 µM | [2] > 100 µM | [3] > 100 µM | [4] > 100 µM | [5] > 100 µM | [6] > 100 µM | [8] > 100 µM | [9] > 100 µM | [11] > 100 µM | [12] > 100 µM | [13] 62.5 µM | [14] > 100 µM | [15] > 100 µM | [16] > 100 µM | [17] > 100 µM | [18] > 100 µM

N#Cc1cccc(-n2[nH]c(=O)ccc2=O)c1
inactive: [1] > 100 µM | [2] > 100 µM | [3] > 100 µM | [4] > 100 µM | [5] > 100 µM | [6] > 100 µM | [8] > 100 µM | [9] > 100 µM | [10] > 100 µM | [11] > 100 µM | [12] > 100 µM | [13] 59.7 µM | [14] > 100 µM | [15] > 100 µM | [16] > 100 µM | [17] > 100 µM | [18] > 100 µM

COCN1C(=O)C2CC(/C=C/C(N)=O)=CN2C(=O)c2ccccc21 (stereo not drawn)
inactive: [1] > 100 µM | [2] > 100 µM | [3] > 100 µM | [4] > 100 µM | [5] > 100 µM | [8] > 100 µM | [10] > 100 µM | [11] > 100 µM | [12] > 100 µM | [13] > 100 µM | [14] > 100 µM | [15] > 100 µM | [16] > 100 µM | [17] > 100 µM | [18] > 100 µM

COc1cc2nncc(Sc3cnnc4ccccc34)c2cc1OC
inactive: [1] 21 µM | [2] 29 µM | [3] 22.1 µM | [4] 21.6 µM | [5] 25.5 µM | [6] 27 µM | [7] 26.7 µM | [8] 23 µM | [9] 17.2 µM | [10] 10.1 µM | [11] 7.52 µM | [12] 18.9 µM | [14] 21.9 µM | [15] 16.9 µM | [16] 26 µM | [17] 14.2 µM | [18] 19.8 µM

O=C(N/C=C/C=C/Sc1ccccc1)OCc1ccccc1
inactive: [1] 16.5 µM | [2] 24.3 µM | [3] 8.83 µM | [4] 17.5 µM | [5] 19.3 µM | [6] 14.3 µM | [8] 18.7 µM | [10] 21.7 µM | [11] 16 µM | [12] 17.5 µM | [13] 21.5 µM | [14] 21.2 µM | [15] 18.7 µM | [16] 15.4 µM | [17] 17.7 µM | [18] 33.3 µM

O=[N+]([O-])c1ccc(-c2noc(-c3ccccc3)c2C2=NCCN2)cc1
inactive: [1] 42.7 µM | [3] 55.3 µM | [4] 52.1 µM | [5] 84.5 µM | [6] > 100 µM | [8] > 100 µM | [9] > 100 µM | [10] 77.6 µM | [11] > 100 µM | [12] > 100 µM | [13] 68.5 µM | [14] > 100 µM | [15] > 100 µM | [16] > 100 µM | [17] 12.9 µM | [18] 53.2 µM

C#CCn1c(=O)c2cccnc2n(CC#C)c1=O
inactive: [2] > 100 µM | [3] > 100 µM | [4] > 100 µM | [5] > 100 µM | [6] > 100 µM | [8] > 100 µM | [9] > 100 µM | [10] > 100 µM | [12] > 100 µM | [13] > 100 µM | [15] > 100 µM | [17] > 100 µM | [18] > 100 µM

NNC(=O)C(=O)N/N=C1\CCCC1C(=O)CCC(=O)Nc1cccc(Cl)c1 (stereo not drawn)
inactive: [2] > 100 µM | [3] > 100 µM | [4] > 100 µM | [5] > 100 µM | [6] > 100 µM | [8] > 100 µM | [9] > 100 µM | [10] > 100 µM | [11] > 100 µM | [12] > 100 µM | [13] > 100 µM | [14] > 100 µM | [15] > 100 µM | [17] > 100 µM | [18] > 100 µM

CCN(CC)CC1c2ccccc2C(CNc2ccccc2)N1C (stereo not drawn)
inactive: [2] > 100 µM | [3] 29.6 µM | [6] > 100 µM | [8] > 100 µM | [9] > 100 µM | [10] > 100 µM | [11] > 100 µM | [12] > 100 µM | [13] 49.3 µM | [14] > 100 µM | [15] 80.7 µM | [16] 57.8 µM | [17] > 100 µM | [18] > 100 µM

C/C(=N\[N+](C)(C)C)C(c1ccccc1)C1(c2ccccc2)C(c2ccccc2)=C1c1ccccc1 (stereo not drawn)
inactive: [1] 37.5 µM | [2] 90.2 µM | [3] > 100 µM | [4] > 100 µM | [5] 66.1 µM | [6] > 100 µM | [7] > 100 µM | [9] > 100 µM | [10] > 100 µM | [11] > 100 µM | [12] > 100 µM | [14] > 100 µM | [15] > 100 µM | [16] > 100 µM | [17] > 100 µM | [18] > 100 µM

CCN(CC)CCOC(c1ccccc1)c1ccccc1.CCOC(=O)Nc1ccc(S(=O)(=O)NCCCl)cc1.CCOC(=O)Nc1ccc(S(=O)(=O)NCCCl)cc1.Nc1ccc(C(=O)O)c(O)c1
inactive: [1] > 100 µM | [2] > 100 µM | [3] > 100 µM | [4] > 100 µM | [5] > 100 µM | [6] > 100 µM | [7] > 100 µM | [8] > 100 µM | [9] > 100 µM | [10] > 100 µM | [11] > 100 µM | [12] > 100 µM | [13] > 100 µM | [14] > 100 µM | [16] > 100 µM | [17] > 100 µM | [18] > 100 µM

Cc1oc2c(C)c3oc(=O)cc(C)c3cc2c1CNC(=O)[C@@H]1OCCOCCOCCOCCOCCOC1C(=O)O (stereo partly drawn)
inactive: [1] > 100 µM | [2] > 100 µM | [3] > 100 µM | [4] > 100 µM | [5] > 100 µM | [6] > 100 µM | [7] > 100 µM | [9] > 100 µM | [10] > 100 µM | [11] > 100 µM | [12] > 100 µM | [13] > 100 µM | [14] > 100 µM | [15] > 100 µM | [16] > 100 µM | [17] > 100 µM | [18] > 100 µM
